Among the data in patent publication US10239843B2 (CANCER RESEARCH TECHNOLOGY LIMITED, priority 2014, dated 2019) are IC50 values, retold here.

The target of test [1] is Human Full Length PARG (Homo sapiens (Human), UniProt Q86W56). As to the kind of experiment: PARG enzyme assay (TR-FRET). In kind it is biochemical. (In TR-FRET formats the signal depends on donor and acceptor labels being close together.)
In test [2] the test system is PARG in HeLa cell line. As to the kind of experiment: PARG cell assay (PAR chain immunofluorescence after MMS). In kind it is cell-based. Conditions: HeLa cells. In outline: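 HeLa cells were dosed with compound for 1 h, then given MMS at 50 μg/mL final for a further hour. Cells were methanol-fixed, permeabilised and stained overnight at 4° C with anti-PAR monoclonal antibody. Retained nuclear PAR chains, detected by indirect immunofluorescence, indicate PARG inhibition.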

Setting [3] is: read-out: PARG Biochem IC50 Geomean.
The mark [4] stands for this setting: MMS 50 μg/mL, read-out: PARG Cell IC50 Geomean.
Where [5] appears, read: Homo sapiens, MMS 50 μg/mL, read-out: PARG Cell IC50 Geomean.
[6] abbreviates: Homo sapiens, MMS treatment, read-out: PARG Cell IC50.
Setting [7] is: MMS treatment, read-out: PARG Cell IC50.

Read-outs that look alike come from different tables or passages of the source.

Human Full Length PARG, sequence (Q86W56 whole entry): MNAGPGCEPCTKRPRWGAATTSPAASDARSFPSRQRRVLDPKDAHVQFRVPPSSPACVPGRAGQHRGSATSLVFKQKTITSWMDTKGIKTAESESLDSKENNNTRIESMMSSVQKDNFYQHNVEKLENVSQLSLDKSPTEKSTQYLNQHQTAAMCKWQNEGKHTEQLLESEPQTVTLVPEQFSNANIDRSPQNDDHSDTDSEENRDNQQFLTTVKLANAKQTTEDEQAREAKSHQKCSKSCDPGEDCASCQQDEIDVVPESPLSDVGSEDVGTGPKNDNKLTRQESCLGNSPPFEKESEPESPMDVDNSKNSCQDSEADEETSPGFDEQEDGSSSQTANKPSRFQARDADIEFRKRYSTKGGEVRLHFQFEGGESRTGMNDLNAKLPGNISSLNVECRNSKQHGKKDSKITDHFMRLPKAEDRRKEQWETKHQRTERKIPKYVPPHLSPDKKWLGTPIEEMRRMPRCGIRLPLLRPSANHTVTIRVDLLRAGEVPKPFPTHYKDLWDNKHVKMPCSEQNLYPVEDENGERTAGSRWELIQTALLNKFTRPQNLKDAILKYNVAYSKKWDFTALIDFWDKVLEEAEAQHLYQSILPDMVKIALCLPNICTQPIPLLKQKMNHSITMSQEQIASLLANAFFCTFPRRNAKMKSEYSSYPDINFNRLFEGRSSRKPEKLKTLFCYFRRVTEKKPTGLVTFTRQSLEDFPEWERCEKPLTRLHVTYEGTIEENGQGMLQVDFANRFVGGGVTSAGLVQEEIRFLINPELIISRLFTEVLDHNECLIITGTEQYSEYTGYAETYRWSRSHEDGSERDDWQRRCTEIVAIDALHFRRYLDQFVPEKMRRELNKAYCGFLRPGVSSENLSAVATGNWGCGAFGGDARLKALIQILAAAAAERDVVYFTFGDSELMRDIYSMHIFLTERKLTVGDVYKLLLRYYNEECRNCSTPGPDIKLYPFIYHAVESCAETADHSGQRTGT

As to `Cc1cc(Cn2c(=O)n(Cc3cnn(C)c3)c(=O)c3cc(S(=O)(=O)NC4(C)CC4)c(F)cc32)on1` [Example 391, 7-Fluoro-N-(1-methylcyclopropyl)-1-[(3-methylisoxazol-5-yl)methyl]-3-[(1-methylpyrazol-4-yl)methyl]-2,4-dioxo-quinazoline-6-sulfonamide], the IC50 in test [1] (setting [3]) was 24 nM; in test [2] (setting [4]), 67 nM.
For the compound `Cc1cc(Cn2c(=O)n(Cc3cnn(C)c3)c(=O)c3cc(S(=O)(=O)NC4(C)CC4)c(F)cc32)n(C)n1` [Example 392, 1-[(2,5-Dimethylpyrazol-3-yl)methyl]-7-fluoro-N-(1-methylcyclopropyl)-3-[(1-methylpyrazol-4-yl)methyl]-2,4-dioxo-quinazoline-6-sulfonamide], the IC50 in test [1] (setting [3]) was determined as 47 nM; in test [2] (setting [5]), 113 nM.
Take `Cn1cc(Cn2c(=O)c3cc(S(=O)(=O)NC4(C)CC4)c(F)cc3n(Cc3cnn(C)c3)c2=O)cn1` [Example 393, 7-Fluoro-N-(1-methylcyclopropyl)-1,3-bis[(1-methylpyrazol-4-yl)methyl]-2,4-dioxo-quinazoline-6-sulfonamide]: the half-inhibitory concentration (IC50) stood at 28 nM in test [1] (setting [3]) and 84 nM in test [2] (setting [4]).
With `Cn1cc(Cn2c(=O)c3cc(S(=O)(=O)NC4(C)CC4)c(F)cc3n(CC3COC3)c2=O)cn1` [Example 394, 7-Fluoro-N-(1-methylcyclopropyl)-3-[(1-methylpyrazol-4-yl)methyl]-1-(oxetan-3-ylmethyl)-2,4-dioxo-quinazoline-6-sulfonamide], the IC50 in test [1] (setting [3]) came out at 66 nM; in test [2] (setting [5]) it was 326 nM.
`Cn1cc(Cn2c(=O)c3cc(S(=O)(=O)NC4(C)CC4)c(F)cc3n(CC3CCOC3)c2=O)cn1` (centres unmarked) [Example 395, 7-Fluoro-N-(1-methylcyclopropyl)-3-[(1-methylpyrazol-4-yl)methyl]-2,4-dioxo-1-(tetrahydrofuran-3-ylmethyl)quinazoline-6-sulfonamide]: the IC50 was 60 nM in test [1] (setting [3]) and 156 nM in test [2] (setting [5]).
On to `Cc1nc(C)c(Cn2c(=O)n(Cc3cnn(C)c3)c(=O)c3cc(S(=O)(=O)NC4(C)CC4)c(F)cc32)s1` [Example 396, 1-[(2,4-Dimethylthiazol-5-yl)methyl]-7-fluoro-N-(1-methylcyclopropyl)-3-[(1-methylpyrazol-4-yl)methyl]-2,4-dioxo-quinazoline-6-sulfonamide], for which the IC50 stood at 11 nM in test [1] (setting [3]) and 17 nM in test [2] (setting [5]).
As to `Cn1cc(Cn2c(OCC3(C)COC3)nc3cc(F)c(S(=O)(=O)NC4(C)CC4)cc3c2=O)cn1` [Example 397, 7-Fluoro-3-((1-methyl-1H-pyrazol-4-yl)methyl)-N-(1-methylcyclopropyl)-2-((3-methyloxetan-3-yl)methoxy)-4-oxo-3,4-dihydroquinazoline-6-sulfonamide], the IC50 came to 282 nM in test [1] (read-out: PARG Biochem IC50) and 256 nM in test [2] (setting [6]).
The like results for `Cn1cc(Cn2c(=O)c3cc(S(=O)(=O)NC4(C)CC4)c(F)cc3n(CC3(C)COC3)c2=O)cn1` [Example 398, 7-Fluoro-3-((1-methyl-1H-pyrazol-4-yl)methyl)-N-(1-methylcyclopropyl)-1-((3-methyloxetan-3-yl)methyl)-2,4-dioxo-1,2,3,4-tetrahydroquinazoline-6-sulfonamide] were, in that order, 44 nM and 257 nM.
`Cc1ncc(Cn2c(=O)c3cc(S(=O)(=O)NC4(C#N)CC4)ccc3n(CC3CC3)c2=O)s1` [Example 399, N-(1-Cyanocyclopropyl)-1-(cyclopropylmethyl)-3-[(2-methylthiazol-5-yl)methyl]-2,4-dioxo-quinazoline-6-sulfonamide]: the results for the half-inhibitory concentration (IC50) in test [1] (read-out: PARG Biochem IC50) and in test [2] (setting [6]) were 31 nM and 87 nM, respectively.
Take `Cc1cc(Cn2c(=O)n(Cc3cnc(C)s3)c(=O)c3cc(S(=O)(=O)NC4(C#N)CC4)ccc32)on1` [Example 400, N-(1-Cyanocyclopropyl)-1-[(3-methylisoxazol-5-yl)methyl]-3-[(2-methylthiazol-5-yl)methyl]-2,4-dioxo-quinazoline-6-sulfonamide]: the IC50 in test [1] (read-out: PARG Biochem IC50) is 27 nM; in test [2] (setting [6]), 320 nM.
Taken in the same sequence, the figures for `Cc1ncc(Cn2c(=O)c3cc(S(=O)(=O)NC4(C#N)CC4)ccc3n(Cc3sc(C)nc3C)c2=O)s1` [Example 401, N-(1-Cyanocyclopropyl)-1-[(2,4-dimethylthiazol-5-yl)methyl]-3-[(2-methylthiazol-5-yl)methyl]-2,4-dioxo-quinazoline-6-sulfonamide] were 8 nM and 101 nM.
As to `Cc1ncc(Cn2c(=O)c3cc(S(=O)(=O)NC4(C#N)CC4)ccc3n(Cc3ccc(F)cc3)c2=O)s1` [Example 402, N-(1-Cyanocyclopropyl)-1-[(4-fluorophenyl)methyl]-3-[(2-methylthiazol-5-yl)methyl]-2,4-dioxo-quinazoline-6-sulfonamide], the 50% inhibitory concentration (IC50) in test [1] (read-out: PARG Biochem IC50) was 66 nM; in test [2] (setting [6]), 167 nM.
Regarding `C#CCn1c(=O)n(Cc2cnc(C)s2)c(=O)c2cc(S(=O)(=O)NC3(C#N)CC3)ccc21` [Example 403, N-(1-Cyanocyclopropyl)-3-[(2-methylthiazol-5-yl)methyl]-2,4-dioxo-1-prop-2-ynyl-quinazoline-6-sulfonamide], the IC50 in test [1] (read-out: PARG Biochem IC50) is 84 nM; in test [2] (setting [7]), 265 nM.
For `Cc1cc(Cn2c(=O)n(Cc3cnn(C)c3)c(=O)c3cc(S(=O)(=O)NC4(C#N)CC4)c(F)cc32)on1` [Example 404, N-(1-Cyanocyclopropyl)-7-fluoro-1-[(3-methylisoxazol-5-yl)methyl]-3-[(1-methylpyrazol-4-yl)methyl]-2,4-dioxo-quinazoline-6-sulfonamide], the IC50 was 71 nM in test [1] (read-out: PARG Biochem IC50) and 3860 nM in test [2] (setting [6]).
Turning to `Cc1cc(Cn2c(=O)c3cc(S(=O)(=O)NC4(C)CC4)ccc3n(CC3CCC(F)(F)CC3)c2=O)on1` [Example 405, 1-[(4,4-Difluorocyclohexyl)methyl]-N-(1-methylcyclopropyl)-3-[(3-methylisoxazol-5-yl)methyl]-2,4-dioxo-quinazoline-6-sulfonamide], the results for the IC50 in test [1] (read-out: PARG Biochem IC50) and in test [2] (setting [6]) were 248 nM and 144 nM, respectively.
Take `Cc1cc(Cn2c(=O)c3cc(S(=O)(=O)NC4(C)CC4)ccc3n(CCC(=O)N(C)C)c2=O)on1` [Example 406, N, N-Dimethyl-3-[6-[(1-methylcyclopropyl)sulfamoyl]-3-[(3-methylisoxazol-5-yl)methyl]-2,4-dioxo-quinazolin-1-yl]propanamide]: the IC50 amounted to 456 nM in test [1] (read-out: PARG Biochem IC50) and 800 nM in test [2] (setting [6]).
The like results for `Cc1cc(Cn2c(=O)c3cc(S(=O)(=O)NC4(C)CC4)ccc3n(CCCO)c2=O)on1` [Example 407, 1-(3-Hydroxypropyl)-N-(1-methylcyclopropyl)-3-[(3-methylisoxazol-5-yl)methyl]-2,4-dioxo-quinazoline-6-sulfonamide] were, in that order, 394 nM and 625 nM.
Turning to `Cn1cc(Cn2c(=O)c3cc(S(=O)(=O)NC4(CF)CC4)ccc3n(C)c2=O)cn1` [Example 408, N-[1-(Fluoromethyl)cyclopropyl]-1-methyl-3-[(1-methylpyrazol-4-yl)methyl]-2,4-dioxo-quinazoline-6-sulfonamide], the IC50 in test [1] (read-out: PARG Biochem IC50) stood at 648 nM; in test [2] (setting [6]), 287 nM.
Turning to `Cn1cc(Cn2c(=O)c3cc(S(=O)(=O)NC4(C)CC4)ccc3n(CCF)c2=O)cn1` [Example 410, 1-(2-Fluoroethyl)-N-(1-methylcyclopropyl)-3-[(1-methylpyrazol-4-yl)methyl]-2,4-dioxo-quinazoline-6-sulfonamide], the values for the IC50 in test [1] (read-out: PARG Biochem IC50) and in test [2] (setting [6]) were 263 nM and 126 nM, respectively.
Regarding `Cc1cc(Cn2c(=O)c3cc(S(=O)(=O)NC4(C)CC4)ccc3n(CCF)c2=O)on1` [Example 411, 1-(2-Fluoroethyl)-N-(1-methylcyclopropyl)-3-[(3-methylisoxazol-5-yl)methyl]-2,4-dioxo-quinazoline-6-sulfonamide], the IC50 in test [1] (read-out: PARG Biochem IC50) was determined as 409 nM; in test [2] (setting [6]), 104 nM.
Regarding `Cc1cc(Cn2c(=O)c3cc(S(=O)(=O)NC4(C)CC4)ccc3n(CC3CC(=O)C3)c2=O)on1` [Example 412, N-(1-Methylcyclopropyl)-3-[(3-methylisoxazol-5-yl)methyl]-2,4-dioxo-1-[(3-oxocyclobutyl)methyl]quinazoline-6-sulfonamide], the values for the IC50 in test [1] (read-out: PARG Biochem IC50) and in test [2] (setting [6]) were 440 nM and 289 nM, respectively.
`COC(C)(C)Cn1c(=O)n(Cc2cc(C)no2)c(=O)c2cc(S(=O)(=O)NC3(C)CC3)ccc21` [Example 413, 1-(2-Methoxy-2-methyl-propyl)-N-(1-methylcyclopropyl)-3-[(3-methylisoxazol-5-yl)methyl]-2,4-dioxo-quinazoline-6-sulfonamide]: the IC50 in test [1] (read-out: PARG Biochem IC50) came to 469 nM; in test [2] (setting [6]) it was 305 nM.
As for `Cc1cc(Cn2c(=O)c3cc(S(=O)(=O)NC4(C)CC4)ccc3n(CC(=O)N3CCC3)c2=O)on1` [Example 414, 1-[2-(Azetidin-1-yl)-2-oxo-ethyl]-N-(1-methylcyclopropyl)-3-[(3-methylisoxazol-5-yl)methyl]-2,4-dioxo-quinazoline-6-sulfonamide], the IC50 in test [1] (read-out: PARG Biochem IC50) amounted to 2080 nM; in test [2] (setting [7]), 9220 nM.
Regarding `Cc1cc(Cn2c(=O)c3cc(S(=O)(=O)NC4(C)CC4)ccc3n(CC3CNC3)c2=O)on1` [Example 415, 1-(Azetidin-3-ylmethyl)-N-(1-methylcyclopropyl)-3-[(3-methylisoxazol-5-yl)methyl]-2,4-dioxo-quinazoline-6-sulfonamide], the values for the IC50 in test [1] (read-out: PARG Biochem IC50) and in test [2] (setting [6]) were 609 nM and 1440 nM, respectively.
In the case of `Cn1cc(Cn2c(=O)[nH]c3ccc(S(=O)(=O)NC4(CF)CC4)cc3c2=O)cn1` [Example 416, N-[1-(Fluoromethyl)cyclopropyl]-3-[(1-methylpyrazol-4-yl)methyl]-2,4-dioxo-1H-quinazoline-6-sulfonamide], the half-inhibitory concentration (IC50) came to 430 nM in test [1] (read-out: PARG Biochem IC50) and 1320 nM in test [2] (setting [7]).

As a reminder, the IC50 is the midpoint of a concentration-inhibition curve.
